Converted amounts (≈) assume the structure as drawn. Read-outs that look alike come from different tables or passages of the source. No end group written: not given here.
How the values were obtained:
[1] = test system: S. aureus MW2; assay: Checkerboard synergy of C18 with clinical antibacterial agents; type: cell-based, Staphylococcus aureus; conditions: for Kind of interaction with C18: named agent combined with C18, S. aureus MW2, checkerboard; for FICI (fractional inhibition concentration index): named agent combined with C18, S. aureus MW2, 8 × 8 checkerboard, synergy FICI ≤ 0.5, additive 0.5 < FICI ≤ 4, antagonism > 4
Experimental: The checkerboard assay was used to evaluate the synergy of C18 with conventional antibacterial agents against S. aureus MW2 [40]. Briefly, an 8 × 8 matrix was formed in a 96-well microtiter petri dish with two-fold serial dilutions of C18 combined with each conventional antibacterial agent. The fractional inhibition concentration index (FICI) was calculated: FICI = MIC of compound A in combination / MIC of compound A alone +MIC of compound B in combination / MIC of compound B alone.

[2] = test system: S. aureus MW2; assay: microbe, parasite or virus in culture; type: cell-based, Staphylococcus aureus; conditions: for MIC: Staphylococcus aureus, MW2, 18 h
Experimental: Broth microdilution assays determined the MICs of peptides following the method described by the Clinical and Laboratory Standards Institute. In short, for each peptide, serial dilutions (50 µL) in duplicates were made in Mueller-Hinton broth (BD, Franklin Lakes, NJ, USA) in a 96-well plate (Cat No. 3595, Corning, NY, USA). […] After bacterial addition, the plates were incubated at 37°C for 18 h. […] To investigate each peptide’s activity in high salt concentrations or human serum, the MIC was again tested as described in the previous paragraph of the experimental method. […] All MIC assays were conducted in duplicate, with each experiment replicated twice.

[3] = test system: S. aureus MW2; assay: Propidium iodide membrane permeability; type: cell-based, Staphylococcus aureus; conditions: 32 µg/mL, 1 h incubation
Experimental: Fluorescence-based bacterial permeation assay was used to follow the membrane-oriented interactions of the designed peptides. The propidium iodide probe is generally used to establish a pore formation mechanism of AMPs. In short, S. aureus MW2 was inoculated in MHB and grown overnight at 37 °C overnight with shaking at 220 rpm. A fresh inoculation was done the next day in the same media to achieve exponential growth. The culture was then washed with PBS 3 times and adjusted to OD600 ~0.3 in PBS. We added 48 μL of this culture to a 96-well black clear-bottom plate (Cat no. 3904, Corning, NY, USA) containing 50 μL of serially diluted 2 × peptide concentrations, and 2 μL of propidium iodide (20 μM) was added per well. Fluorescence was measured by SpectraMax M2 (Molecular Devices, CA, USA) with an excitation wavelength of 584 nm and an emission wavelength of 620 nm after 1 h at room temperature.

[4] = Rhodamine-BF dye leakage from liposomes; conditions: liposomes DOPC: Cholesterol, 55:40; 1 h incubation
Source text: We also performed dye leakage experiments to further understand the membrane interactive nature of the peptides. A dye, rhodamine-BF, entrapped in liposomes (DOPC: Cholesterol, 55:40) was subjected to the action of the peptides.

[5] = test system: human red blood cells; type: cell-based; conditions: for HL50 (50% of human red blood cells were lysed): 1 h
Experimental: The ability of the peptide to cause hemoglobin leakage was evaluated, as described in a previous study. Human erythrocytes were purchased from Rockland Immunochemicals (Limerick, PA, USA), washed 3 × times in equal volume PBS, and resuspended as 4% hRBCs solution. One hundred microliters of the blood cells were added to 100 µl of the peptide solution in PBS serially diluted from 4–128 µg/mL in a 96-well microtiter plate. PBS and 1% Triton-X 100 were used as […] controls. Upon adding the blood cells, the plate was incubated at 37 °C for 1 h and then centrifuged at 500× g for 5 min. One hundred microliters of the supernatant were transferred to a fresh 96-well plate, and absorbance was read at 540 nm. The hemolysis percentage was calculated considering 100% hemolysis caused by 1% Triton X-100 and 0% on PBS. The values were represented as the mean of duplicates. The following formula calculated the percentage of hemolysis: (A540 nm in the peptide solution − A540 nm in PBS)/(A540 nm of 1% Triton X-100 treated sample − A540 nm in PBS) × 100. Zero and 100% percentage hemolysis were determined in PBS and […], respectively.

[6] = test system: G. mellonella larvae; assay: Galleria mellonella toxicity; type: in vivo; conditions: uninfected larvae, doses 4, 8, 16, 32 mg/kg, even at 32 mg/kg, until 120 h, n = 16/group
Experimental: To study the protective effects of the peptide C18 in an in vivo model, we used an established wax moth model system. G. mellonella larvae (Vanderhorst Wholesale, St. Mary’s, OH, USA) were distributed as a different group with randomly selected larvae (n = 16/group). The S. aureus MW2 bacteria were grown to exponential phase from overnight culture. Cells were then washed with PBS three times and finally suspended in PBS with an OD600 = 0.3. Experimental groups consisted of untouched (no injection), PBS (vehicle), bacterial infection group, and treatment group. Vancomycin was used as a positive control. […] All injections were performed using a Hamilton syringe on the last left proleg. The larvae were incubated at 37 °C for 5 days, with live and dead counts being performed every 24 h.

[7] = test system: HepG2 cells; assay: Mammalian cell cytotoxicity (WST-1); type: cell-based, human; conditions: 64 µg/mL, HepG2, 24 h
Experimental: HepG2 cells were used to assess the mammalian cell cytotoxicity of AMPs, as described previously. Cells were grown in Dulbecco’s Modified Eagle Medium (DMEM) (Gibco, MD, USA) supplemented with 10% fetal bovine serum (FBS) (Gibco, MD, USA) and 1% penicillin/streptomycin (Gibco, MD, USA) and maintained at 37°C in 5% CO2. Cells were harvested and resuspended in a fresh medium, and 100 µL were distributed in a 96-well plate at […]. AMPs were serially diluted in serum and antibiotic-free DMEM added to the monolayer of the cells, and the plates were incubated at 37 °C in 5% CO2 for 24 h. At 4 h, before the end of the incubation period, 10 µL of 2-(4-iodophenyl)-3-(4-nitrophenyl)-5-(2, 4-disulfophenyl)-2H-tetrazolium (WST-1) solution (Roche, Mannheim, Germany) was added to each well. WST-1 reduction was monitored at 450 nm using a Vmax microplate reader. Assays were performed in triplicate, and the percentage of cell survival was calculated.

[8] = test system: psGABO-SPE plasmid DNA; assay: Plasmid band shift assay (DNA binding)
Experimental: The methods in the reference were used to detect the ability of C18 binding DNA [43]. Briefly, the reaction of 20 μL containing 100 ng psGABO-SPE plasmid DNA (Addgene, MA, USA), polymyxin B, and C18 (1.95–500 μM) or ddH2O (control) was incubated in TE (Tris-EDTA) buffer (Invitrogen, CA, USA) at 37 °C for 2 h. The products were detected in 1% agarose gel electrophoresis, and plasmid migration was observed on a G: BOX Chemi XT4 gel doc system.

| Compound | Kind of interaction with C18 [1] | FICI (fractional inhibition concentration index) [1] | HL50 (50% of human red blood cells were lysed) [5] | also measured |
| --- | --- | --- | --- | --- |
| CCCCCCCCCC(=O)N[C@@H](Cc1c[nH]c2ccccc12)C(=O)N[C@H](CC(N)=O)C(=O)N[C@@H](CC(=O)O)C(=O)N[C@@H]1C(=O)NCC(=O)N[C@@H](CCCN)C(=O)N[C@@H](CC(=O)O)C(=O)N[C@H](C)C(=O)N[C@@H](CC(=O)O)C(=O)NCC(=O)N[C@H](CO)C(=O)N[C@@H]([C@H](C)CC(=O)O)C(=O)N[C@@H](CC(=O)c2ccccc2N)C(=O)O[C@@H]1C [daptomycin] | synergistic effect |  |  |  |
| CNC(C)C1CCC(N)C(OC2C(N)CC(N)C(OC3OCC(C)(O)C(NC)C3O)C2O)O1 (stereo not shown) [gentamicin] | additive effect | 1.25 |  |  |
| Cc1onc(-c2ccccc2)c1C(=O)N[C@@H]1C(=O)N2[C@@H]1SC(C)(C)[C@@H]2C(=O)O [oxacillin] | additive effect | 0.75 |  |  |
| CN[C@H](CC(C)C)C(=O)N[C@H]1C(=O)N[C@@H](CC(N)=O)C(=O)N[C@H]2C(=O)N[C@H]3C(=O)N[C@H](C(=O)N[C@H](C(=O)O)c4cc(O)cc(O)c4-c4cc3ccc4O)[C@H](O)c3ccc(c(Cl)c3)Oc3cc2cc(c3O[C@@H]2O[C@H](CO)[C@@H](O)[C@H](O)[C@H]2O[C@H]2C[C@](C)(N)[C@H](O)[C@H](C)O2)Oc2ccc(cc2Cl)[C@H]1O [vancomycin] | additive effect | 0.625 |  | MIC against S. aureus MW2, Serum (5%) ([2]; MHB with human serum (5%), 37 °C, 18 h, duplicate, replicated twice): not changed; MIC ([2]; read-out: MIC against S. aureus MW2, CaCl2 (2 mM)): 2 µg/mL (≈ 1.38 µM); MIC ([2]; read-out: MIC against S. aureus MW2, MHB): 2 µg/mL (≈ 1.38 µM); MIC ([2]; read-out: MIC against S. aureus MW2, NaCl (150 mM)): 2 µg/mL (≈ 1.38 µM); Propidium iodide fluorescence [3]: unable to induce any fluorescence; Rhodamine-BF fluorescence (dye leakage) [4]: lowest |
| LWKIGKKIWRVLWNWR [C18] |  |  | 16 µg/mL | HL50 relative to MIC against MRSA MW2 [5]: 4 times; Larvae survival (toxicity) [6]: more than 70% |
| LWKIWKKIWRVGWNWR [C13] |  |  | 48 µg/mL |  |
| LWKIWKKIWRVWKNWR [C16] |  |  | 16 µg/mL |  |
| LWKIWWKIWRVWKNWR [C22] |  |  | 4 µg/mL | Reduction of live-cell contents [7]: 20% |
| polymyxin B |  |  |  | Concentration of significant DNA binding ([8]; 100 ng plasmid, TE buffer, 37 °C, 2 h, 1% agarose gel, 1.95–500 μM tested): 31.2 µM; Concentration of significant DNA binding ([8]; same concentration in brackets): 37.1 µg/mL |
